From publication PMC2662380 (Journal of medicinal chemistry, 2008)

Tests used:
[1] = tested on: MDA-MB-231 breast cancer cell line; experiment: induction of cell death, trypan blue exclusion assay; format: cell-based, human; conditions: for induction of cell death (in words): different concentrations, 48 hours
[2] = tested on: caspase-8, PARP; experiment: Western blot analysis of caspase-8 processing and PARP cleavage; conditions: MDA-MB-231, within 24 h

Structure (SMILES) | induction of cell death (in words) [1] | concentration that effectively induces cell death [1] [nM] | lowest concentration inducing processing of caspase-8 and cleavage of PARP [2] [nM]
CN[C@@H](C)C(=O)N[C@H]1Cc2ccccc2[C@H]2CC[C@@H](C(=O)NC(c3ccccc3)c3ccccc3)N2C1=O [Compound 5] | capable of inducing cell death in a dose-dependent manner |  | 
CN[C@@H](C)C(=O)N[C@H]1Cc2ccccc2[C@H]2CC[C@@H](C(=O)N[C@@H]3CCCc4ccccc43)N2C1=O [Compound 6] | most effective | 100 | 100
CN[C@@H](C)C(=O)N[C@H]1Cc2ccccc2[C@H]2CCC[C@@H](C(=O)NC(c3ccccc3)c3ccccc3)N2C1=O [Compound 8] | least effective |  | 
